Experiment [1] has as its system MC38 colorectal cancer cells. Kind of experiment: MC38 tumor challenge in mice fed UroA enriched diet. It counts as in vivo, C57BL/6 mice. An excerpt: Cell line and in vitro culture: An MC38 colorectal cancer cell line and a B16 cell line were used. The MC38 colorectal cancer cell line (Corbett el al., Can Res, 1975) is a murine colon adenocarcinoma cell line from a C57BL/6 mouse. The cells are adherent and have a fibroblast morphology. MC38 cells will form tumors and metastases post implantation into syngeneic C57BL/6 mice or immunocompromised mice. The B16 melanoma is a murine tumor cell line used for research as a model for human skin cancers. Both MC38 and B16 cancer cell lines are commercially available.
The MC38 colorectal cancer cell line was maintained in RPMI 1640 media (Thermofisher) supplemented with 10% FBS (Gibco), 50 μM beta-mercaptoethanol (Thermofisher), 100 U/ml penicillin/streptomycin (Thermofisher), 1 mM Sodium Pyruvte (Thermofisher).
B57BL/6 mice were purchased from ENVIGO and housed in the animal facility of the University of Lausanne. One week upon arrival mice were fed ad libitum with Urolithin A enriched diet. Urolithin A diet was prepared as follow: 300 mg of Urolithin A (Novalix) was dissolved in DMSO (Applichem) and mixed with 1 kg of “2016 Irradiated Global 16% Rodent diet ground” (ENVIGO) corresponding to a dose of 50 mg/kg/day. For control diet, hereafter named DMSO diet, DMSO (Applichem) was mixed with 1 kg of “2016 Irradiated Global 16% Rodent diet ground” (ENVIGO). The diets were aliquoted in small balls and let them dry under sterile conditions. Mice were fed ad libitum for 4 weeks with DMSO diet or Urolithin A diet before tumor engraftment.
For tumor engraftment, each mouse was injected subcutaneously with 5×10^5 MC38 cancer cells or 1×10^5 B16 cancer cells into the right flank.
For the MC38 and B16 experiments 5 mice received ad libitum DMSO diet, and 5 mice received ad libitum Urolithin A enriched diet for 4 weeks before tumor injection. Mice were sacrificed at humane endpoint as established by the Swiss federal regulation and approved by cantonal authorities. Examples of humane endpoint are: tumor size exceeding […], loss of weight (15% of the previous time point) and sign of distress. […] These mice were named survivor mice.
To test this hypothesis, mice were fed ad libitum with UroA diet (see above, Urolithin A diet) and control diet (DMSO, see above) for 4 weeks. Colorectal cancer cells MC38 were subcutaneously injected in the right flank of the mice (FIG. 1A). Tumor volumes were estimated by using the formula: tumor volume=(length×width×width)/2.

Experiment [2] has as its system B16 melanoma. Kind of experiment: B16 melanoma preventive effect, diet on/off. Format: in vivo, B57BL/6 mice. The note with it: day 17, 5×10^5 B16 cells s.c. An excerpt:
To test whether Urolithin A feeding would have a preventive effect by boosting the immune system inventors performed the following experiment. A less immunogenic tumor model B16 melanoma was chosen for this experiment. 10 mice received ad libitum DMSO diet (see above), and 10 mice received ad libitum Urolithin A enriched diet (see above) for 4 weeks. Then 5 mice from DMSO diet were placed in conventional diet (provided by Animal facility), this group was called DMSO on/off. The remaining 5 mice were kept in DMSO diet and named DMSO group. 5 mice from Urolithin diet were placed in conventional diet (provided by Animal facility), this group was called UroA on/off. The remaining 5 mice were kept in […]. After one week, 5×10^5 B16 cells were subcutaneously injected in the right flank of B57BL/6 mice. Tumor engraftment, diet treatment and re-challenge experiments were as described initially in Example 1.

The next experiment concerns MC38 cells. Kind of experiment: MC38 tumor challenge in immunodeficient NSG mice. Format: in vivo. Particulars: for effect on tumor growth rate and size: NSG immunodeficient mice, vs DMSO control. An excerpt:
To validate that the Urolithin A supplementation enhances the adaptive immune response 5×10^5 MC38 cells were subcutaneously injected in the right flank of the immunodeficient mice NSG (NOD.Cg-Prkdc^sc^i^d II2rg^tm1Wil/SzJ) previously fed with Urolithin A enriched diet for 4 weeks. Tumor volumes were estimated by using the formula: tumor volume=(length×width×width)/2. 5 mice recede the DMSO diet and 5 mice received the Urolithin A enriched diet. Both the 5 mice receiving the DMSO diet and the 5 mice receiving the Urolithin A enriched diet developed tumors.

The nature of experiment [3]: Initial tests in mice fed diet supplemented with UroA. Format: in vivo.
Experiment [4] has as its system B16 melanoma. Kind of experiment: B16 melanoma tumor challenge in mice fed UroA enriched diet. It counts as in vivo, B57BL/6 mice. The note with it: 5 mice; Urolithin A enriched diet ad libitum 4 weeks before B16 injection. Here is the method:
The B16 cell line were maintained in DMEM+GlutaMAX (Thermofisher) supplemented with 10% FBS (Gibco), and 100 U/ml penicillin/streptomycin (Thermofisher). B57BL/6 mice were purchased from ENVIGO and housed in the animal facility of the University of Lausanne. One week upon arrival mice were fed ad libitum with Urolithin A enriched diet. Urolithin A diet was prepared as follow: 300 mg of Urolithin A (Novalix) was dissolved in DMSO (Applichem) and mixed with 1 kg of “2016 Irradiated Global 16% Rodent diet ground” (ENVIGO) corresponding to a dose of 50 mg/kg/day. For control diet, hereafter named DMSO diet, DMSO (Applichem) was mixed with 1 kg of “2016 Irradiated Global 16% Rodent diet ground” (ENVIGO). The diets were aliquoted in small balls and let them dry under sterile conditions. Mice were fed ad libitum for 4 weeks with DMSO diet or Urolithin A diet before tumor engraftment. For tumor engraftment, each mouse was injected subcutaneously with 5×10^5 MC38 cancer cells or 1×10^5 B16 cancer cells into the right flank. For the MC38 and B16 experiments 5 mice received ad libitum DMSO diet, and 5 mice received ad libitum Urolithin A enriched diet for 4 weeks before tumor injection. Mice were sacrificed at humane endpoint as established by the Swiss federal regulation and approved by cantonal authorities. […]

Experiment [5] relates to MC38 colorectal cancer cells. Kind of experiment: MC38 tumor re-challenge of survivor mice. It counts as in vivo. An excerpt: For re-challenge experiments, survivor mice were removed from the UroA diet and placed in conventional diet (diet provided by the animal facility of University of Lausanne) for one week. During this week one mouse developed tumor and was excluded from the experiment. The remaining 3 mice were subcutaneously injected with 5×10^5 MC38 cancer cells. At the same time, another 5 mice (named control cage) were subcutaneously injected with 5×10^5 MC38 cancer cells. This second tumor injection was done on the left flank of the mouse to discriminate between tumor arising from the first injection from tumor arising from the second, re-challenge, injection.
Then, it was tested whether UroA mediated tumor control was exerted through adaptive immune response. It was assumed as a working hypothesis that memory T cells with antitumoral activity would have been generated in the survivor hosts, which would promptly react against a second tumor graft. To test this hypothesis, survivor mice from the UroA group were injected after 7 weeks with the same cancer cell line (MC38) in the opposite flank (FIG. 2A). To exclude any possible contribution of UroA in tumor growth, the mice survivor mice and a control cage group were kept in conventional food without UroA for one week before tumor injection.

One compound from patent US20250032447A1, “USE OF UROLITHIN IN THE REMISSION PHASE OF A PRECEDING CANCER THERAPY” (SOCIETE DES PRODUITS NESTLE S.A., priority 2022, published 2025) can be followed below.

“Also recorded” adds a separate entry of the source.

On to `O=c1oc2cc(O)ccc2c2ccc(O)cc12` [Urolithin A, 3,8-dihydroxyurolithin], for which the average tumor size was determined as 50 mm^3 in experiment [1] (Exp1, 5 mice, Urolithin A enriched diet ad libitum 4 weeks (50 mg/kg/day) before s.c. injection of 5×10^5 MC38 cells); 200 mm^3 in the experiment on B16 melanoma [2] (UroA group (kept on diet)); 200 mm^3 in the experiment with B16 melanoma [2] (UroA on/off group (4 weeks diet, then conventional diet one week before injection)); 70 mm^3 in the experiment with B16 melanoma [4]. Besides, in experiment [1] (Exp1 and Exp2, UroA enriched diet ad libitum vs DMSO diet), the “tumor engraftment and growth” value was “significantly reduced”. For the same compound, the “mice that developed tumors bigger than 100 mm^3” value in experiment [1] (Exp2, out of 3 mice on Urolithin A enriched diet) is given as “one”. In experiment [1] (MC38, mice fed Urolithin A diet), the “mice that did not develop any tumor” value is 4 out of 5. In experiment [1] (UroA diet compared to DMSO diet, MC38 model), the overall survival result is listed as “improved overall survival”. Also, the “effect on tumor growth rate and size” value in the experiment on MC38 cells was “no change in tumors growth rate and volume”; in the experiment on MC38 cells (listed as UroA) it was “no effect on tumor size”. The compound also returned a tumor size at last timepoint in the experiment on MC38 cells (day 18, NSG mice, Urolithin A enriched diet 4 weeks, 5×10^5 MC38 cells s.c.) of 1000 mm³. Besides, the “overall quality of HSCs” value in experiment [3] is reported as “increased”. The splenocytes count entry in experiment [3] is “increased”. Moreover, in experiment [5] (survivor mice re-injected with MC38 in opposite flank after 7 weeks, conventional food without UroA for one week before injection), the “average tumor size upon re-challenge” value was found to be 100 mm^3. In experiment [5] (survivor mice vs freshly challenged control cage group, listed as UroA), the survival upon re-challenge entry is “better tumor control capacity and survival; also recorded: improved overall survival”.
